{
  "source": "ChEMBL document CHEMBL6092141",
  "about": "“Discovery of a proteolysis targeting chimera (PROTAC) as a potent regulator of FOXP3” (2024)",
  "key": {"[1]": {"target": "T1, von Hippel-Lindau disease tumor suppressor/Forkhead box protein P3 (Homo sapiens) (UniProt P40337+Q9BZS1)", "T1 sequence (P40337 whole entry, looked up)": "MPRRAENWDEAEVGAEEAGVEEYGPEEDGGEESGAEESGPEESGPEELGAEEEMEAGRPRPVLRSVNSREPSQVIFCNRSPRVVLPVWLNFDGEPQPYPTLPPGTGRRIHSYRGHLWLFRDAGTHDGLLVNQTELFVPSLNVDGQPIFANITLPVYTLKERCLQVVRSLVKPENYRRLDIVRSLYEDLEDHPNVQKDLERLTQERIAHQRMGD", "T1 sequence (Q9BZS1 whole entry, looked up)": "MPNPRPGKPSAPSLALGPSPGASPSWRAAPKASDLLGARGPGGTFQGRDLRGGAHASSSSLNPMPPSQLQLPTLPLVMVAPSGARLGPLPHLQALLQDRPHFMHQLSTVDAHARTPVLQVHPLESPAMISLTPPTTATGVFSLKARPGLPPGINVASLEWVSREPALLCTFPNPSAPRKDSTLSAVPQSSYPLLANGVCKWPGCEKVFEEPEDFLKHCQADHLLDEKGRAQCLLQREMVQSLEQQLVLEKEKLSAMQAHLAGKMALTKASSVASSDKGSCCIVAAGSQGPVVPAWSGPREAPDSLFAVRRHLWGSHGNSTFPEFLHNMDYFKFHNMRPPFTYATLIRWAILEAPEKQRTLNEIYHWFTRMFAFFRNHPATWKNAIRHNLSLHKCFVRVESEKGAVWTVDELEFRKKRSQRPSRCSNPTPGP", "test": "PROTAC activity at VHL/Foxp3 (unknown origin) transfected in HEK293T cells assessed as induction of Foxp3 degradation by measuring reduction in protein level at 10 to 1000 nM incubated for 24 hrs by Western blot analysis", "type": "cell-based", "details": "dose 10-1000 nM"}, "HeLa": {"test_system": "HeLa", "test": "Inhibition of HA-tagged Foxp3 (unknown origin) nuclear translocation transfected in human HeLa cells at 1 uM incubated for 24 hrs by DAPI staining based confocal microscopic analysis", "type": "cell-based"}, "HEK293T [2]": {"test_system": "HEK293T", "test": "Inhibition of HA-tagged Foxp3 (unknown origin) nuclear translocation transfected in a HEK293T cells at 50 to 100 uM incubated for 24 hrs by DAPI staining based confocal microscopic analysis", "type": "cell-based", "details": "Homo sapiens, dose 50-100 µM"}, "[3]": {"target": "T1, von Hippel-Lindau disease tumor suppressor/Forkhead box protein P3 (Homo sapiens)", "test": "PROTAC activity at VHL/Foxp3 (unknown origin) transfected in HEK293T cells assessed as induction of Foxp3 degradation by measuring reduction in protein level at 500 to 1000 nM incubated for 24 hrs by Western blot analysis", "type": "cell-based", "details": "dose 500-1000 nM"}, "[4]": {"target": "T1, von Hippel-Lindau disease tumor suppressor/Forkhead box protein P3 (Homo sapiens)", "test": "PROTAC activity at VHL/Foxp3 (unknown origin) transfected in HEK293T cells assessed as induction of Foxp3 degradation by measuring reduction in protein level at 1 uM measured after 24 to 48 hrs by Western blot analysis", "type": "cell-based", "details": "time 24-48 hrs"}, "[5]": {"target": "T1, von Hippel-Lindau disease tumor suppressor/Forkhead box protein P3 (Homo sapiens)", "test": "PROTAC activity at VHL/Foxp3 (unknown origin) transfected in HEK293T cells assessed as induction of Foxp3 degradation by measuring reduction in protein level at 3 uM incubated for 48 hrs in presence of MG132 by Western blot analysis", "type": "cell-based"}, "HEK293T [6]": {"test_system": "HEK293T", "test": "Inhibition of HA-tagged Foxp3 (unknown origin) nuclear translocation transfected in a HEK293T cells at 1 to 3 uM incubated for 24 hrs by DAPI staining based confocal microscopic analysis", "type": "cell-based", "details": "Homo sapiens, dose 1-3 µM"}, "[7]": {"test": "Immunomodulatory activity in anti-CD3/CD28-induced C57BL/6 mouse CD4+ T cells isolated from spleen/lymph nodes assessed as reduction in foxp3+ CD4+ IL2/TGF-beta induced T regulatory cells at 1 uM incubated for 48 hrs by fluorescence activated cell sorting analysis (reference value: 6.56 %)", "type": "functional", "design": "scale not given: the % may be the effect or the level left"}, "[8]": {"test": "Immunomodulatory activity in anti-CD3/CD28-induced C57BL/6 mouse CD4+ T cells isolated from spleen/lymph nodes assessed as reduction in foxp3+ CD4+ IL2/TGF-beta induced T regulatory cells at 2 uM incubated for 48 hrs by fluorescence activated cell sorting analysis (reference value: 6.56 %)", "type": "functional", "design": "scale not given: the % may be the effect or the level left"}, "[9]": {"test": "Immunomodulatory activity in anti-CD3/CD28-induced C57BL/6 mouse CD4+ T cells isolated from spleen/lymph nodes assessed as reduction in foxp3+ CD4+ IL2/TGF-beta induced T regulatory cells at 4 uM incubated for 48 hrs by fluorescence activated cell sorting analysis (reference value: 6.56 %)", "type": "functional", "design": "scale not given: the % may be the effect or the level left"}, "[10]": {"test": "Immunomodulatory activity in anti-CD3/CD28-induced C57BL/6 mouse CD4+ T cells isolated from spleen/lymph nodes assessed as reduction in foxp3+ CD4+ IL2/TGF-beta induced T regulatory cells at 1 uM incubated for 72 hrs by fluorescence activated cell sorting analysis (reference value: 32.7 %)", "type": "functional", "design": "scale not given: the % may be the effect or the level left"}, "[11]": {"test": "Immunomodulatory activity in anti-CD3/CD28-induced C57BL/6 mouse CD4+ T cells isolated from spleen/lymph nodes assessed as reduction in foxp3+ CD4+ IL2/TGF-beta induced T regulatory cells at 2 uM incubated for 72 hrs by fluorescence activated cell sorting analysis (reference value: 32.7 %)", "type": "functional", "design": "scale not given: the % may be the effect or the level left"}, "[12]": {"test": "Immunomodulatory activity in anti-CD3/CD28-induced C57BL/6 mouse CD4+ T cells isolated from spleen/lymph nodes assessed as reduction in foxp3+ CD4+ IL2/TGF-beta induced T regulatory cells at 3 uM incubated for 72 hrs by fluorescence activated cell sorting analysis (reference value: 32.7 %)", "type": "functional", "design": "scale not given: the % may be the effect or the level left"}, "[13]": {"test": "Immunomodulatory activity in anti-CD3/CD28-induced C57BL/6 mouse CD4+ T cells isolated from spleen/lymph nodes assessed as reduction in foxp3+ CD4+ IL2/TGF-beta induced T regulatory cells at 4 uM incubated for 72 hrs by fluorescence activated cell sorting analysis (reference value: 32.7 %)", "type": "functional", "design": "scale not given: the % may be the effect or the level left"}, "CD4+ T cell [14]": {"test_system": "CD4+ T cell", "test": "Immunomodulatory activity in anti-CD3/CD28-induced C57BL/6 mouse CD4+ T cells isolated from spleen/lymph nodes assessed as reduction in Foxp3 mRNA expression in IL2/TGF-beta induced T regulatory cells measured after 72 hrs by RT-qPCR analysis", "type": "functional, cell-based"}, "CD4+ T cell [15]": {"test_system": "CD4+ T cell", "test": "Immunomodulatory activity in anti-CD3/CD28-induced C57BL/6 mouse CD4+ T cells isolated from spleen/lymph nodes assessed as increase in IL2 mRNA expression in IL2/TGF-beta induced T regulatory cells measured after 72 hrs by RT-qPCR analysis", "type": "functional, cell-based"}, "CD4+ T cell [16]": {"test_system": "CD4+ T cell", "test": "Immunomodulatory activity in anti-CD3/CD28-induced C57BL/6 mouse CD4+ T cells isolated from spleen/lymph nodes assessed as increase in IFN-gamma mRNA expression in IL2/TGF-beta induced T regulatory cells measured after 72 hrs by RT-qPCR analysis", "type": "functional, cell-based"}, "CD4+ T cell [17]": {"test_system": "CD4+ T cell", "test": "Immunomodulatory activity in anti-CD3/CD28-induced C57BL/6 mouse CD4+ T cells isolated from spleen/lymph nodes assessed as reduction in Foxp3 protein expression in IL2/TGF-beta induced T regulatory cells at 1 to 4 uM measured after 72 hrs by Western blot analysis", "type": "functional, cell-based", "details": "dose 1-4 µM"}},
  "note": "The source made the active and inactive calls. The calls are words filed in the database; no cut-off is given here. Residues, ends and D or L forms follow the SMILES beside them. *: point of attachment. X1 = Cc1ncsc1-c1ccc(CNC(=O)[C@@H]2C[C@@H](O)CN2C(=O)[C@@H](NC(=O)COCCOCCNC(=O)CCCCCc2cn(CCCC(=O)*)nn2)C(C)(C)C)cc1; X2 = Cc1ncsc1-c1ccc(CNC(=O)[C@@H]2C[C@@H](O)CN2C(=O)[C@@H](NC(=O)CCOCCOCCc2cn(CCCC(=O)*)nn2)C(C)(C)C)cc1; X3 = Cc1ncsc1-c1ccc(CNC(=O)[C@@H]2C[C@@H](O)CN2C(=O)[C@@H](NC(=O)CCCCCc2cn(CCCC(=O)*)nn2)C(C)(C)C)cc1",
  "data": [
    {"molecule": "CSCC[C@H](NC(=O)[C@H](C)NC(=O)[C@H](Cc1ccccc1)NC(=O)[C@H](Cc1ccccc1)NC(=O)[C@@H]1CCCN1C(=O)[C@H](Cc1c[nH]c2ccccc12)NC(=O)[C@H](CCSC)NC(=O)[C@H](CCCCN)NC(=O)[C@H](CCCNC(=N)N)NC(=O)[C@H](Cc1ccccc1)NC(=O)[C@H](CO)NC(=O)[C@H](CCC(N)=O)NC(=O)[C@H](Cc1ccccc1)NC(=O)[C@H](CC(=O)O)NC(=O)[C@H](CCCNC(=N)N)NC(=O)CCCn1cc(CCOCCOCCC(=O)N[C@H](C(=O)N2C[C@H](O)C[C@H]2C(=O)NCc2ccc(-c3scnc3C)cc2)C(C)(C)C)nn1)C(N)=O", "note": "(X2-RDFQSFRKMWPFFAM-NH2)", "values": [
      {"measurement": "Activity", "setting": "[1]", "result": "inactive"},
      {"measurement": "inhibition", "setting": "HeLa", "result": "inactive"}
    ]},
    {"molecule": "H-RDFQSFRKMWPFFAM-OH", "values": [
      {"measurement": "inhibition", "setting": "HEK293T [2]", "result": "Active"}
    ]},
    {"molecule": "CSCC[C@H](NC(=O)[C@H](C)NC(=O)[C@H](Cc1ccccc1)NC(=O)[C@H](Cc1ccccc1)NC(=O)[C@@H]1CCCN1C(=O)[C@H](Cc1c[nH]c2ccccc12)NC(=O)[C@H](CCSC)NC(=O)[C@H](CCCCN)NC(=O)[C@H](CCCNC(=N)N)NC(=O)[C@H](Cc1ccccc1)NC(=O)[C@H](CO)NC(=O)[C@H](CCC(N)=O)NC(=O)[C@H](Cc1ccccc1)NC(=O)[C@H](CC(=O)O)NC(=O)[C@H](CCCNC(=N)N)NC(=O)CCCn1cc(CCCCCC(=O)N[C@H](C(=O)N2C[C@H](O)C[C@H]2C(=O)NCc2ccc(-c3scnc3C)cc2)C(C)(C)C)nn1)C(N)=O", "note": "(X3-RDFQSFRKMWPFFAM-NH2)", "values": [
      {"measurement": "Activity", "setting": "[1]", "result": "inactive"},
      {"measurement": "inhibition", "setting": "HeLa", "result": "inactive"}
    ]},
    {"molecule": "CSCC[C@H](NC(=O)[C@H](C)NC(=O)[C@H](Cc1ccccc1)NC(=O)[C@H](Cc1ccccc1)NC(=O)[C@@H]1CCCN1C(=O)[C@H](Cc1c[nH]c2ccccc12)NC(=O)[C@H](CCSC)NC(=O)[C@H](CCCCN)NC(=O)[C@H](CCCNC(=N)N)NC(=O)[C@H](Cc1ccccc1)NC(=O)[C@H](CO)NC(=O)[C@H](CCC(N)=O)NC(=O)[C@H](Cc1ccccc1)NC(=O)[C@H](CC(=O)O)NC(=O)[C@H](CCCNC(=N)N)NC(=O)CCCn1cc(CCCCCC(=O)NCCOCCOCC(=O)N[C@H](C(=O)N2C[C@H](O)C[C@H]2C(=O)NCc2ccc(-c3scnc3C)cc2)C(C)(C)C)nn1)C(N)=O", "note": "(X1-RDFQSFRKMWPFFAM-NH2)", "values": [
      {"measurement": "Activity", "setting": "[3]", "result": "Active"},
      {"measurement": "inhibition", "setting": "HeLa", "result": "Active"},
      {"measurement": "Activity", "setting": "[4]", "result": "Active"},
      {"measurement": "Activity", "setting": "[5]", "result": "inactive"},
      {"measurement": "inhibition", "setting": "HEK293T [6]", "result": "Active; Comparable Effect To 100 Um Of P60 Peptide Observed At 1 Um"},
      {"measurement": "Activity", "setting": "[7]", "result": 6.08, "unit": "%"},
      {"measurement": "Activity", "setting": "[8]", "result": 5.03, "unit": "%"},
      {"measurement": "Activity", "setting": "[9]", "result": 4.87, "unit": "%"},
      {"measurement": "Activity", "setting": "[10]", "result": 28.8, "unit": "%"},
      {"measurement": "Activity", "setting": "[11]", "result": 25.8, "unit": "%"},
      {"measurement": "Activity", "setting": "[12]", "result": 20.2, "unit": "%"},
      {"measurement": "Activity", "setting": "[13]", "result": 15.6, "unit": "%"},
      {"measurement": "Activity", "setting": "CD4+ T cell [14]", "result": "Active"},
      {"measurement": "Activity", "setting": "CD4+ T cell [15]", "result": "Active"},
      {"measurement": "Activity", "setting": "CD4+ T cell [16]", "result": "Active"},
      {"measurement": "Activity", "setting": "CD4+ T cell [17]", "result": "Active"}
    ]}
  ]
}
